From patent publication US20150216865A1, “METHODS OF TREATING A BRUTON'S TYROSINE KINASE DISEASE OR DISORDER” (Celgene Avilomics Research, Inc., priority 2012, published 2015)
Marks after values point to notes of the source that are not given here.

Legend:
[1] = system: collagen-induced arthritis Dba1 mouse model; test: Established collagen induced arthritis model (clinical score, histopathology, body weight); type: in vivo; conditions: for reduction of clinical signs of disease (inhibition of disease): established CIA
Experimental: Established Collagen Induced Arthritis Model: Experiments were carried out at Bolder Biopath, Boulder, Colo. All experiments were carried out in compliance with regulations of the Institutional Animal Care and Use Committee and were conducted in accordance with principles and procedures dictated by the highest standards of humane animal care. […] On study days 25-27, onset of arthritis occurred, and mice were randomized into treatment groups (10/treatment group, 4/group for normal). […] Randomization into each group was done after swelling was obviously established in at least one paw, and attempts were made to assure approximately equal mean scores across the groups at the time of enrollment. […] Treatment continued daily (QD at 24 h intervals) through arthritis day 14.

[2] = system: IL-6; test: Inflammatory chemokine and cytokine analysis in CIA mice, IL-6; type: in vivo, mouse
Description: Inflammatory Chemokine and Cytokine Analysis: At the termination of the CIA study, mice were sacrificed and blood was harvested via cardiac punch using EDTA as an anticoagulant. […] Levels of various mouse cytokines in plasma were quantified using Bioplex® Suspension Array System according to manufacturer's instruction (BioRad, mTNFa (171-G5023M), mIL-6 (171-G5007M), mKC (171-G5018M), mIFNg (171-G5017M), mIL-17 (Z60-00006Z2), mIL-1β (171-G5002M), mMCP-1 (171-G5019M).

[3] = molecular target: T1, Btk (Mus musculus, UniProt P35991); test: Btk occupancy in spleen lysates of CIA mice; type: in vivo
T1 construct: from tissue; host or cells: mouse spleen
T1 sequence (P35991 whole entry): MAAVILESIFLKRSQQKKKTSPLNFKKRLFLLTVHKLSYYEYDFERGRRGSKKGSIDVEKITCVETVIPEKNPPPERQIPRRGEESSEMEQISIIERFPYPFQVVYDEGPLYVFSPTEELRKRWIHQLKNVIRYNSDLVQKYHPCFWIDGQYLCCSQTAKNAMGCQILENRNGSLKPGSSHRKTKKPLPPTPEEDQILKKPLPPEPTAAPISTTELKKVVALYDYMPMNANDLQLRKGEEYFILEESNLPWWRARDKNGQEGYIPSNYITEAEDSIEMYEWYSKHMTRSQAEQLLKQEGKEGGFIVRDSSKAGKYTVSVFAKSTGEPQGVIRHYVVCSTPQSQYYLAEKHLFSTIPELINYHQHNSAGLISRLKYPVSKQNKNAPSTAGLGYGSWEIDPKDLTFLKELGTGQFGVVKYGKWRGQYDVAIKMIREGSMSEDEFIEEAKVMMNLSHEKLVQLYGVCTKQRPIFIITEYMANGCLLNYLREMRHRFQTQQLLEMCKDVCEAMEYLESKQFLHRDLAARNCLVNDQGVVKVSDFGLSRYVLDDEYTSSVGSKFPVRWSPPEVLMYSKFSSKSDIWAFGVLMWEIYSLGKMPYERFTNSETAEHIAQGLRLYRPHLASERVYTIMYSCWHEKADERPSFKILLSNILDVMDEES
Experimental: Spleen Homogenization: Spleens were harvested from mice, frozen immediately in liquid nitrogen and stored at −80° C. To generate spleen lysates, each spleen was sliced in half and lysed using a Precellys 24 Bead Homogenizer in 500 μL of BioRad Bio-Plex Lysis Buffer plus protease inhibitors. Supernatant was transferred to a fresh microfuge tube and stored frozen at −80° C. until analysis.
Btk Target Site Occupancy ELISA: An ELISA method for the detection of free uninhibited Btk in mouse, rat, dog, monkey, and human lysates was developed at Celgene Avilomics Research and a validation of this method in human B cell lysate was performed by a CLIA Certified laboratory (Cambridge Biomedical Laboratories, Boston, Mass.) The parameters that were assessed included: accuracy, linearity, dilution, precision (intra and inter-assay), stability, reference range, freeze-thaw cycles, reportable range, specificity, sensitivity, and carryover. […] Standards and samples were transferred to a streptavidin-coated 96-well ELISA plate and mixed while shaking for 1 h at room temperature. […] After wash, goat α-mouse-HRP (1:5000 dilution in PBS+0.05% Tween-20+0.5% BSA) was added and incubated for 1 h at room temperature. The ELISA was developed with addition of tetramethyl benzidine (TMB) followed by Stop Solution and read at OD 450 nm.
Established Collagen Induced Arthritis Model: Experiments were carried out at Bolder Biopath, Boulder, Colo. All experiments were carried out in compliance with regulations of the Institutional Animal Care and Use Committee and were conducted in accordance with principles and procedures dictated by the highest standards of humane animal care. Dba1 mice were injected at the base of the tail with 150 μL of Freund's Complete Adjuvant (Sigma) containing bovine type II collagen (Elastin Products, Owensville, Mo.) (2 mg/ml) on day 0 and again on day 21. […] Randomization into each group was done after swelling was obviously established in at least one paw, and attempts were made to assure approximately equal mean scores across the groups at the time of enrollment. […] Treatment continued daily (QD at 24 h intervals) through arthritis day 14. […] Clinical scores were assessed for each of the paws on study arthritis days 1-15 using the following scoring system: 0=normal, 1=one hind or fore paw joint affected or minimal diffuse erythema and swelling, 2=two hind or fore paw joints affected or mild diffuse erythema and swelling, 3=three hind or fore paw joints affected or moderate diffuse erythema and swelling, 4=marked diffuse erythema and swelling or =four digit joints affected, 5=severe diffuse erythema and severe swelling entire paw, unable to flex digits.

[4] = system: male NOD mice; test: NOD mouse model, salivary gland histopathology; type: in vivo; conditions: 20 weeks of age
Description: Histopathology. Samples of lachrymal gland and salivary glands from all animals were fixed for Haematoxylin & Eosin histological analysis. Sections were inspected blind by a qualified histopathologist and scored for signs of pathology according to a semi-quantitative scoring system. This system is based on the mean number of inflammatory foci comprising 50 or more mononuclear inflammatory cells per objective field. The ratio of infiltrated to normal glandular tissue was expressed on a five point scale.
(i) Focus Score. The mean number of inflammatory foci comprising ≧50 mononuclear inflammatory cells per ×10 objective field was counted. Five such fields were assessed (where possible) to derive this index and these are selected to contain the maximum number of such foci. Where the overall area of the tissue section was less than five fields, the number of ×10 objective fields was recorded and used to determine the focus score. (ii) Area Score. The ratio of infiltrated to normal glandular tissue was expressed on a five point scale: • 0: No infiltrates • 1: 0-25% of the tissue section infiltrated • 2: 26-50% of the tissue section infiltrated • 3: 51-75% of the tissue section infiltrated • 4: 76-100% of the tissue section infiltrated
Salivary Gland Histopathology. […] Sections were examined and scored for two criteria: Focus Score and Area Score as outlined above.

C=CC(=O)Nc1cccc(Nc2nc(Nc3ccc(OCCOC)cc3)ncc2F)c1 [Compound 1 besylate, N-(3-(5-fluoro-2-(4-(2-methoxyethoxyl)phenylamino)pyrimidin-4-ylamino)phenyl)acrylamide besylate]
reduction of clinical signs of disease (inhibition of disease) ([1]; 3 mg/kg PO QD): 50% | reduction of clinical signs of disease (inhibition of disease) ([1]; 10 mg/kg PO QD): 85% | inhibition of histopathologic signs of disease (six joints) ([1]; 30 mg/kg): 96% | reduction of clinical signs of disease (inhibition of disease) ([1]; 30 mg/kg PO QD): 95% | body weight loss associated with severity of disease ([1]; all three dose levels (3, 10, 30 mg/kg)): prevented the loss in body weight | IL-6 mean ([2]; 3 mg/kg): 15.4 pg/mL | IL-6 mean ([2]; 10 mg/kg): 9.1* pg/mL | IL-6 mean ([2]; 30 mg/lkg): 10.5* pg/mL | Btk occupancy in spleen ([3]; 30 mg/kg, 2 hours after last dose, besylate): 95% | drug-free Btk protein re-synthesized, % of pre-dose levels ([3]; 24 hours after a 10 mg/kg dose): approximately 60% | Btk occupancy in spleen ([3]; 24 hours after the 3 mg dose): 19% | Btk occupancy in spleen ([3]; 24 hours, dose level 10 mg): > 40% | Btk occupancy in spleen ([3]; 24 hours, dose level 30 mg): > 40% | receptor occupancy at 3 mg/kg ([3]; mouse, 3 mg/kg, 2 hours after last dose): 34% | receptor occupancy at 10 mg/kg ([3]; mouse, 10 mg/kg, 2 hours after last dose): 84% | receptor occupancy at 30 mg/kg ([3]; mouse, 30 mg/kg, 2 hours after last dose): 97% | salivary gland Area Score (proportion of infiltrated glandular tissue) vs vehicle [4]: did not reduce | salivary gland Focus Score (number of inflammatory foci) vs vehicle [4]: did not reduce
